Here are results for 36 molecules from ChEMBL document CHEMBL4665890, “N-Trifluoromethyl Amines and Azoles: An Underexplored Functional Group in the Medicinal Chemist's Toolbox” (J Med Chem, 2020).

Data set [1] is described as follows: Stability in neat DMSO at 10 mM at room temperature under air without protection from sunlight measured after 1 month by LC-MS analysis. Type of data set: physicochemical. The conditions noted are these: 730 h, 10000 µM, time 1 months.
A short description of data set [2]: physchem. The conditions noted are these: 0.1 M HCl solution, pH 1.
Description: Half life in 0.1 M HCl solution at pH 1.0 at 25 degC by UPLC analysis
The nature of data set [3]: physchem. The settings on record: buffer, pH 7.4.
Data set [4] in a line: physchem. The conditions noted are these: 20 mM sodium carbonate buffer, pH 10.
Description: Half life in 20 mM sodium carbonate buffer at pH 10 at 25 degC by UPLC analysis
Data set [5] is described as follows: physchem. The settings on record: 20 mM sodium phosphate buffer, pH 7.4.
Description: Half life in 20 mM sodium phosphate buffer at pH 7.4 at 25 degC by UPLC analysis
A short description of data set [6]: physchem. The settings on record: buffer, pH 7.4. The source holds these as a separate data set.
A short description of data set [7]: Stability in neat […] DMSO/H2O 1:4 mixture assessed as compound hydrolysis at 10 mM at room temperature under air without protection from sunlight measured after 0.5 hrs by LC-MS analysis. It is filed as physicochemical. The settings on record: 10000 µM.
A short description of data set [8]: in vitro. The settings on record: human, Caco-2.
Description: Passive permeability from apical to basolateral side in human Caco-2 cells
Data set [9] in a line: in vitro. The settings on record: human, liver microsomes. A general note: Liver microsomes are a subcellular fraction often used to study metabolism.
Description: Metabolic stability in human liver microsomes
Data set [10] in a line: Stability in neat […] DMSO/H2O 1:4 mixture assessed as compound hydrolysis at 10 mM at room temperature under air without protection from sunlight measured after 24 hrs by LC-MS analysis. Type of data set: physicochemical. The settings on record: read-out: Drug degradation.
Data set [11] can be described thus: physchem.
Description: Dissociation constant, pKa1 of compound by spectrophotometry
A short description of data set [12]: Stability in neat […] DMSO/H2O 1:4 mixture assessed as compound hydrolysis at 10 mM at room temperature under air without protection from sunlight measured after 1 month by LC-MS analysis. It is filed as physicochemical. The settings on record: 730 h, 10000 µM, time 1 months.
Data set [13] is described as follows: Stability in neat […] DMSO/H2O 1:4 mixture assessed as compound hydrolysis at 10 mM at room temperature under air without protection from sunlight measured after 1 month by NMR analysis. It is filed as physicochemical. The settings on record: 730 h, 10000 µM, time 1 months.
The nature of data set [14]: Stability in absence of glutathione by LC-MS analysis. It is filed as physicochemical. The conditions noted are these: gsh.
A short description of data set [15]: Stability in presence of glutathione by LC-MS analysis. The conditions noted are these: solution with glutathione. Type of data set: physicochemical.
The nature of data set [16]: physchem. The source holds these as a separate data set.
Description: Dissociation constant, pKa2 of compound by spectrophotometry

A value given as a limit tells only on which side of the number the result lay.

For `CN(c1cccc(F)c1)C(F)(F)F`, the Stabilty entry in data set [1] was “Stable”.
The term half-life denotes how long it takes for the measured level to halve. Usually logD stands for the decadic logarithm of the distribution of all forms, ionised or not, between an organic phase and buffer at a given pH. The low end stands for lower lipophilicity, the high end for higher lipophilicity. In general, chromatographic logD refers to lipophilicity estimated from chromatographic retention. With `Cc1cc(NS(=O)(=O)c2ccc(N(C)C(F)(F)F)cc2)no1`, the half-life in “physchem [2]” was 4.8 h; in “physchem [4]”, 7.2 h; in the data set “physchem [5]”, 9.6 h. The same molecule yielded a logD in “physchem [3]” of 1.6. Also, in “physchem [6]”, the chromatographic logD turned out to be 1.5.
Take `CN(c1ccccc1)C(F)(F)F`: the Stabilty entry in data set [1] is given as “Stable”; in [7], “Unstable”.
For orientation: Papp A→B means the apparent permeability from the apical to the basolateral side of a cell layer. In general, microsomal CLint refers to the capacity of the preparation to metabolise the compound, expressed as a volume cleared per time. The low end stands for slow turnover, the high end for rapid turnover. For the molecule `CC(=O)c1ccc(N2CCN(C(=O)c3cnn(C(F)(F)F)c3)CC2)cc1`, the figures for the half-life in “physchem [2]”, in “physchem [4]” and in “physchem [5]” were 984 h, 408 h and more than 1730 h, respectively. In “physchem [3]”, this molecule returned a pH-dependent lipophilicity (logD) of 1.9. Besides, the Papp A→B in “in vitro [8]” was found to be 71 ×10⁻⁶ cm/s. This molecule showed a chromatographic logD in “physchem [6]” of 2.3. Also, in the data set “in vitro [9]”, the intrinsic clearance (microsomal CLint) is less than 3 µL/min/mg.
As to `Cn1cc(Nc2nc(N[C@H]3CC[C@H](N(C)C)CC3)c3cccn3n2)cn1`, the logD in the data set “physchem [3]” stood at 0.6. The molecule further showed a Papp A→B in “in vitro [8]” of 2.4 ×10⁻⁶ cm/s. Further, the chromatographic logD in the data set “physchem [6]” is less than 0. For the same molecule, the microsomal CLint in the data set “in vitro [9]” is less than 3 µL/min/mg.
Take `FC(F)(F)N1CCc2ccccc21`: the figures for the Stabilty result in data set [1] and in data set [7] were “Stable” and “Unstable”, respectively.
`COc1ccc(N(C)C(F)(F)F)cc1`: the Stabilty result in data set [1] is “Stable”; in [7], “Unstable”.
Take `CCCCN(C)c1ccc(C(=O)OCCN(C)C)cc1`: in “physchem [3]”, the pH-dependent lipophilicity (logD) worked out at 2.8. The chromatographic logD in “physchem [6]” came to 3.3.
In the case of `CC(=O)c1ccc(N2CCN(C(=O)c3cnn(C(C)(C)C)c3)CC2)cc1`, the log distribution coefficient (logD) in “physchem [3]” is 2.2. Also, the apical-to-basolateral permeability (Papp A→B) in “in vitro [8]” was 66 ×10⁻⁶ cm/s. The molecule further showed a chromatographic logD in the data set “physchem [6]” of 2.2. The same molecule gave a microsomal CLint in “in vitro [9]” of less than 4.5 µL/min/mg.
As for `Cc1ccc(N(C)C(F)(F)F)cc1`, the Stabilty result in data set [1] was “Stable”; in data set [7], “Unstable”.
With `CN(C)[C@H]1CC[C@H](Nc2nc(Nc3cnn(C(F)(F)F)c3)nn3cccc23)CC1`, the half-life is more than 1730 h in the data set “physchem [2]”, 1700 h in the data set “physchem [4]” and more than 1730 h in “physchem [5]”. The logD in “physchem [3]” is 2.2. In “in vitro [8]”, this molecule returned a Papp A→B of 12 ×10⁻⁶ cm/s. For the same molecule, the chromatographic logD in “physchem [6]” came out at 2.2. In “in vitro [9]”, this molecule gave a microsomal CLint of less than 3 µL/min/mg.
Consider `CN(c1ccc(C#N)cc1)C(F)(F)F`, for which the degraded at 24 h, 10000 µM in data set [10] is 24%. For the same molecule, the Stabilty entry in data set [1] is on record as “Stable”.
Consider `COc1ccc(CC(=O)Nc2cnn(C(F)(F)F)c2)cc1OC`, for which the values for the half-life in the data set “physchem [2]”, in “physchem [4]” and in “physchem [5]” were 288 h, more than 1730 h and more than 1730 h, respectively. For the same molecule, the logD in the data set “physchem [3]” worked out at 2.4. Moreover, in “in vitro [8]”, the Papp A→B is 56 ×10⁻⁶ cm/s. Besides, the chromatographic logD in “physchem [6]” is 2.2. Further, the microsomal CLint in the data set “in vitro [9]” came to 53 µL/min/mg.
Consider `COc1ccc(CC(=O)Nc2cnn(C)c2)cc1OC`, for which the logD in “physchem [3]” stood at 0.9. This molecule displayed an apical-to-basolateral permeability (Papp A→B) in “in vitro [8]” of 42 ×10⁻⁶ cm/s. The molecule also yielded a chromatographic logD in the data set “physchem [6]” of 0.1. The molecule also came in with a microsomal CLint in the data set “in vitro [9]” of less than 3 µL/min/mg.
Consider `FC(F)(F)N1CCCc2ccccc21`, for which the Stabilty entry is on record as “Stable” in [1] and “Unstable” in [7].
For `FC(F)(F)N1CCN(c2ccccc2)CC1`, the Stabilty result in [1] is “Stable”; in [7], “Unstable”.
Consider `CC(C)n1cc(Nc2nc(N[C@H]3CC[C@H](N(C)C)CC3)c3cccn3n2)cn1`, for which, in the data set “physchem [3]”, the logD amounted to 1.4. In addition, the apical-to-basolateral permeability (Papp A→B) in the data set “in vitro [8]” turned out to be 8.4 ×10⁻⁶ cm/s. Further, in the data set “physchem [6]”, the chromatographic logD turned out to be 1.1. The microsomal CLint in the data set “in vitro [9]” was less than 3 µL/min/mg.
As to `CCOC(=O)N(Cc1ccccc1)C(F)(F)F`, the Stabilty result in [1] is “Stable”; in data set [7] it was “Unstable”.
In general, pKa refers to the pH at which an ionisable group is half protonated. Higher therefore signals a weaker acid or stronger base. As for `FC(F)(F)n1c(-c2cscn2)nc2ccccc21`, the half-life in “physchem [2]”, in the data set “physchem [4]” and in the data set “physchem [5]” was more than 1730 h in each case. Also, the logD in “physchem [3]” amounted to 3. Further, in the data set “physchem [11]”, the pKa was less than 2. The same molecule returned a Papp A→B in the data set “in vitro [8]” of 58 ×10⁻⁶ cm/s. This molecule came in with a chromatographic logD in the data set “physchem [6]” of 3.3. The molecule also showed a microsomal CLint in “in vitro [9]” of 39 µL/min/mg.
For the molecule `Cc1cc(NS(=O)(=O)c2ccc(N(C)C)cc2)no1`, the logD in “physchem [3]” is 0.6. Further, the chromatographic logD in the data set “physchem [6]” turned out to be 1.3.
On to `FC(F)(F)n1cccn1`, for which the Stabilty result in data set [12], in data set [1] and in [13] was “Stable” in each case.
As for `CN(c1ccc(F)cc1)C(F)(F)F`, in [1], the Stabilty result was “Stable”.
For `COc1ccc(CC(=O)Nc2cnn(C(C)(C)C)c2)cc1OC`, the logD in “physchem [3]” amounted to 2. For the same molecule, in the data set “in vitro [8]”, the Papp A→B was 45 ×10⁻⁶ cm/s. The molecule further showed a chromatographic logD in “physchem [6]” of 1.6. Moreover, in the data set “in vitro [9]”, the microsomal CLint is less than 4.1 µL/min/mg.
As to `CC(=O)c1ccc(N2CCN(C(=O)c3cnn(C(C)C)c3)CC2)cc1`, the logD in the data set “physchem [3]” amounted to 1.8. For the same molecule, the Papp A→B in the data set “in vitro [8]” was determined as 40 ×10⁻⁶ cm/s. The chromatographic logD in the data set “physchem [6]” is 1.5. This molecule returned a microsomal CLint in “in vitro [9]” of less than 4.2 µL/min/mg.
In the case of `COc1ccc(CC(=O)Nc2cnn(C(C)C)c2)cc1OC`, the logD in the data set “physchem [3]” was 1.6. Besides, the Papp A→B in the data set “in vitro [8]” is 44 ×10⁻⁶ cm/s. The same molecule showed a chromatographic logD in the data set “physchem [6]” of 0.9. In the data set “in vitro [9]”, the microsomal CLint is less than 3.3 µL/min/mg.
Consider `CCCc1nn(C)c2c(=O)[nH]c(-c3cc(S(=O)(=O)N4CCN(C(F)(F)F)CC4)ccc3CC)nc12`, for which the half-life is less than 31.2 h in “physchem [2]”, less than 12 h in the data set “physchem [4]” and less than 19.2 h in “physchem [5]”. This molecule showed a logD in “physchem [3]” of more than 4. The same molecule displayed a chromatographic logD in “physchem [6]” of more than 5.3.
In the case of `CCCc1nn(C)c2c(=O)[nH]c(-c3cc(S(=O)(=O)N4CCN(C)CC4)ccc3CC)nc12`, the logD in the data set “physchem [3]” was found to be 2.7. The chromatographic logD in “physchem [6]” came out at 3.3.
For `CN(C)[C@H]1CC[C@H](Nc2nc(Nc3cnn(C(C)(C)C)c3)nn3cccc23)CC1`, in the data set “physchem [3]”, the logD was found to be 1.7. In addition, the Papp A→B in “in vitro [8]” amounted to 11 ×10⁻⁶ cm/s. In the data set “physchem [6]”, the chromatographic logD was 1.5. The molecule further returned a microsomal CLint in the data set “in vitro [9]” of less than 3 µL/min/mg.
On to `Cn1c(-c2cscn2)nc2ccccc21`, for which, in the data set “physchem [3]”, the logD was determined as 2.3. Further, the pKa in the data set “physchem [11]” worked out at 4.9. The Papp A→B in the data set “in vitro [8]” stood at 72 ×10⁻⁶ cm/s. This molecule also returned a chromatographic logD in the data set “physchem [6]” of 1.5. The microsomal CLint in “in vitro [9]” stood at 172 µL/min/mg.
As to `FC(F)(F)n1cnc2ccccc21`, the Stabilty result in data set [12], in [1] and in data set [13] was “Stable” throughout.
Consider `CCCCN(c1ccc(C(=O)OCCN(C)C)cc1)C(F)(F)F`, for which the half-life in “physchem [2]”, in “physchem [4]” and in “physchem [5]” was less than 14.4 h in each case. This molecule returned a log distribution coefficient (logD) in the data set “physchem [3]” of more than 4. The molecule also had a chromatographic logD in the data set “physchem [6]” of 4.9.
For the molecule `CCCCN(C(=O)F)c1ccc(C(=O)OCCN(C)C)cc1`, the values for the half-life in data set [14] and in data set [15] were 3.95 h and 1.1 h, respectively.
In “physchem [3]”, `Cc1ccc(-c2cn(C)cn2)cc1NC(=O)c1ccc(OCc2ccccn2)cc1` gave a logD of 2.7. Further, the pKa in the data set “physchem [11]” is 5.8; in the data set “physchem [16]”, 3.9. In “in vitro [8]”, the Papp A→B came out at 72 ×10⁻⁶ cm/s. The chromatographic logD in the data set “physchem [6]” turned out to be 2.2. In addition, in the data set “in vitro [9]”, the microsomal CLint was 4.8 µL/min/mg.
`CN(c1ccc(C(F)(F)F)cc1)C(F)(F)F`: the degraded at 24 h, 10000 µM in data set [10] turned out to be 90%. The Stabilty entry in data set [1] is reported as “Stable”.
On to `CCN(c1ccccc1)C(F)(F)F`, for which the Stabilty entry in [1] is “Stable”; in data set [7] it was “Unstable”.
Molecule `CC(=O)c1ccc(N2CCN(C(=O)c3cnn(C)c3)CC2)cc1` gave a logD in the data set “physchem [3]” of 1.1. The molecule further had a Papp A→B in the data set “in vitro [8]” of 42 ×10⁻⁶ cm/s. In “physchem [6]”, the chromatographic logD came to 0.6. Further, in “in vitro [9]”, the microsomal CLint is less than 3 µL/min/mg.
